These results are taken from patent publication US10766865B2, “PKM2 modulators and methods for their use” (TOLERO PHARMACEUTICALS, INC., priority 2012, dated 2020).

Assay [1] has as its target T1, PKM2 (Homo sapiens, UniProt P14618). The experiment in a line: Cell-Based Pyruvate Kinase Activity Assay, A549. Also noted: host or cells: A549 or NCI-H1299 lung cancer cells. The following applies: A549, 30 minutes with compound, n = 4; read-out: Cellular PKM2 activation EC50. The protocol:
(§1) Cell-Based Pyruvate Kinase Activity Assay
(§2) A549 or NCI-H1299 lung cancer cells were plated at 20,000 cells per well (96-well plate) in MEM media plus 10% FBS, with no additional glutamine or pyruvate. Following overnight incubation, cells were washed with PBS followed by 4 hour incubation in MEM media. Compounds were added to the cells in 1% final concentration DMSO. After 30 minutes, cells were lysed, and pyruvate kinase activity in lysates was determined by Pyruvate Kinase Activity Assay (BioVision, Milpitas, Calif.). Maximum velocity values were calculated from the kinetic data, and AC50 values were determined using Prism GraphPad Software (La Jolla, Calif.). Compound washout experiments were as described above, except after a 30 minute incubation with Example 244 (469 nM), the cells were washed with PBS followed by the addition of MEM media for the indicated time period, lysed and pyruvate kinase activity determined. Results are tabulated in Table 3 and presented graphically in FIGS. 6A and 6B.
Target sequence in this assay (P14618 2-531 limits assumed): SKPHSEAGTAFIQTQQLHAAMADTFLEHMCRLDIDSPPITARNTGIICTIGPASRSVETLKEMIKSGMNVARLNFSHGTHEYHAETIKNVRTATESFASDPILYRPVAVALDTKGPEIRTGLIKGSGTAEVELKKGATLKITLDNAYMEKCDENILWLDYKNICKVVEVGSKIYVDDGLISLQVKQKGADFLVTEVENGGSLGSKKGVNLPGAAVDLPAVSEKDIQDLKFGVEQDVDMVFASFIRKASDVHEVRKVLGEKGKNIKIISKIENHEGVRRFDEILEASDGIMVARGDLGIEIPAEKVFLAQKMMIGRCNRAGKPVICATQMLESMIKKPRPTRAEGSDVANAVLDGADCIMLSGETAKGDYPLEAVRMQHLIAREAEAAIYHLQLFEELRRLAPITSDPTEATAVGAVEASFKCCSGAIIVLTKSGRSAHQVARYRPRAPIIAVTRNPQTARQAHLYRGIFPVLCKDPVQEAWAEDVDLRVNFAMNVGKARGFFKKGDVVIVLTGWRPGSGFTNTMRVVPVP

Assay [2] deals with T1, PKM2. The experiment in a line: PKM2 Biochemical Assay.
Target sequence in this assay (P14618 whole entry): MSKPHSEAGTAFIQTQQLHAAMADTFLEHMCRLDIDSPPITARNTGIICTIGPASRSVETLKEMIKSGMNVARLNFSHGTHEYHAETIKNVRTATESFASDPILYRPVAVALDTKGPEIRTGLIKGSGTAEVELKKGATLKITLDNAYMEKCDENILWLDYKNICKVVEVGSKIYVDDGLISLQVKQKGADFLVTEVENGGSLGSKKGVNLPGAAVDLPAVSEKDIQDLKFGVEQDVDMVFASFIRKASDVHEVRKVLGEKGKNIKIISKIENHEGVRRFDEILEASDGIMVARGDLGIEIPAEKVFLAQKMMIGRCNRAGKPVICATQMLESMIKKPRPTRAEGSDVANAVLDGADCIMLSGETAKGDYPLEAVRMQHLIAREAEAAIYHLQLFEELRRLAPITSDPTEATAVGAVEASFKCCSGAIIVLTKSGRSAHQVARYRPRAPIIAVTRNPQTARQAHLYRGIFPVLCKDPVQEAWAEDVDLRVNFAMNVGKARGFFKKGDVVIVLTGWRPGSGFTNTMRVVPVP
In assay [3] the target is T1, PKM2. The experiment in a line: Cell-Based Pyruvate Kinase Activity Assay, NCI-H1299. The following applies: NCI-H1299, 30 minutes with compound, n = 4; read-out: Cellular PKM2 activation EC50. Also noted: host or cells: A549 or NCI-H1299 lung cancer cells. The protocol: as §1, §2
Target sequence in this assay (P14618 2-531 limits assumed): as the sequence (P14618 2-531 limits assumed) above

Each structure is given as a SMILES string.

With `O=C(c1cc(Cl)n[nH]1)N(Cc1ccc(O)cc1F)CC1CCC1` [Example 244, N-(2-fluoro-4-hydroxybenzyl)-3-chloro-N-(cyclobutylmethyl)-1H-pyrazole-5-carboxamide], the EC50 in assay [1] stood at 450 ± 180 nM; in assay [3], 300 ± 70 nM. In addition, the Emax in assay [2] (read-out: % FBP (extent of maximal activation, relative to FBP)) worked out at 107 ± 10%. Also, the AC50 in assay [2] (read-out: AC50 (concentration of half-maximal PKM2 activation), Table 2, n = 6 to 10) amounted to 62 ± 23 nM. The “Maximal PKM2 activity” value in assay [2] (relative to activity in DMSO controls (normalized to 100%), FIG. 1B) is given as “approximately 600%”.

By EC50 is commonly meant the concentration giving half of the maximal effect.
